Experimental data taken from publication PMC2731242, “Oleic Acid Biosynthesis in Plasmodium falciparum: Characterization of the Stearoyl-CoA Desaturase and Investigation as a Potential Therapeutic Target” (PLoS ONE, 2009).
pIC50: −log10 of the molar value.

Target: T1, stearoyl-CoA Δ9-desaturase (PfSCD, PFE0555w) (Plasmodium falciparum, UniProt Q8I0W9)
T1 construct: gene PF3D7_0511200; native enzyme in crude schizont lysate (500 µg total protein)
Assay: cell-free desaturase assay in schizont lysates, […]-stearoyl-CoA to oleic acid, silver nitrate TLC
Assay type: biochemical

T1 sequence (Q8I0W9 entry or part of it, stated change not applied): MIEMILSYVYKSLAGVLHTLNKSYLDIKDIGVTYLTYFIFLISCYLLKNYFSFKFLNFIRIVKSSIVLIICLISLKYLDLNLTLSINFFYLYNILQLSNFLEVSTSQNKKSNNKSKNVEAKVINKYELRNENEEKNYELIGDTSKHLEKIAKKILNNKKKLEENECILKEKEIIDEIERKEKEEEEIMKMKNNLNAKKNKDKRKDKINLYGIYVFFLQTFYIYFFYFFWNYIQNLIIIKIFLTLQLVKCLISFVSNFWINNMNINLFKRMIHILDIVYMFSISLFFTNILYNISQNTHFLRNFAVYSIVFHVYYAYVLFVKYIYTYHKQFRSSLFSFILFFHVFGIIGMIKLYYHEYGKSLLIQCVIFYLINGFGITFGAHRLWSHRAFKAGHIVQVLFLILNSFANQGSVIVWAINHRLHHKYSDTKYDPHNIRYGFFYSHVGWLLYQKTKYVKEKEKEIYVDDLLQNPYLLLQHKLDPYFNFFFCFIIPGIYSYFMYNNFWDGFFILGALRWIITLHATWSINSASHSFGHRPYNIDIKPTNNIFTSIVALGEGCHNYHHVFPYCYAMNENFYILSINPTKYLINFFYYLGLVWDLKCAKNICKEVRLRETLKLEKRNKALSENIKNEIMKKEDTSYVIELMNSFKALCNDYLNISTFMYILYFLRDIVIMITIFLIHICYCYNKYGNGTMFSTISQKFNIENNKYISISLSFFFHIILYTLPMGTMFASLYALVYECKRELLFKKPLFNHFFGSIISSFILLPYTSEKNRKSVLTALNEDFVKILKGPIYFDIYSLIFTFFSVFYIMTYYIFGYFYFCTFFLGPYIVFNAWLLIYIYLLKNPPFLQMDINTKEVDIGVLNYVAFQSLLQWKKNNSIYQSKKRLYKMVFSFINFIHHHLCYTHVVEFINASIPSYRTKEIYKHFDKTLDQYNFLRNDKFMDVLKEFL

CCCCCCCCC1=C(CCCCCCCC(=O)OC)C1 [MeSter, methyl sterculate]
pIC50: 3.98
